Source: patent publication EP0201999A1 (priority 1985, dated 1986)
Marks after values point to notes of the source that are not given here.

Key:
Format in all cases: in vivo
[…] [1] = Root drench test against Plasmopara viticola on vines (Example 30); conditions: vines (variety ohanez), 25 ppm, approx. 10 ppm compound/dry soil, inoculated after 2 days, assessed six days later
Experimental: This Example illustrates the activity of the invention compounds against the disease Plasmopara viticola on vines.
For the test on Plasmopara viticola the vine plants (variety ohanez) were grown in John Innes Potting Compost (No. 1 or 2) in 4 cm diameter minipots. The test compounds were formulated either by bead milling with aqueous Dispersol T or as a solution in acetone or acetone/ ethanol which was diluted to a concentration of 25 ppm of the compound immediately before use. The solutions or suspensions were applied as a root drench to a final concentration equivalent to approximately 10 ppm compound/dry soil. After 2 days the plants were inoculated with the pathogen, and then placed in a humidity cabinet to allow infection to proceed, and the assessment carried out six days later.
The disease grading system was as for Example 29.

P[…] = conditions: 100 ppm a.i. foliar spray plus root drench approx. 40 ppm ai./dry soil, mostly protectant, applied 1-2 days before inoculation
VENTURIA INAEQUALIS = test: Foliar fungal disease test on plants (Example 29), Venturia inaequalis on apples; conditions: 100 ppm a.i. foliar spray plus root drench approx. 40 ppm ai./dry soil, mostly protectant, applied 1-2 days before inoculation
Experimental: (§1) The compounds were tested against a variety of mainly foliar fungal diseases of plants. The techniques employed were as follows.
(§2) For all tests the plants were grown in John Innes Potting Compost (No. 1 or 2) in 4 cm diameter minipots. The test compounds were formulated either by bead milling with aqueous Dispersol T or as a solution in acetone or acetone/ethanol which was diluted to the required concentration immediately before use. The solutions or suspensions (100 ppm ia.) were sprayed on the foliage and applied to the roots of the plant via the soil. The sprays were applied to maximum retention and the root drenches to a final concentration equivalent to approximately 40 ppm ai./dry soil. "TWEEN" 20, to give a final concentration of 0.05%, was added when the sprays were applied to cereals. (a.i. means "active ingredient"). The word "TWEEN" is a Trade Mark.
(§3) Most were protectant tests where the compound was applied to the soil and roots and to the foliage one or two days before the plant was inoculated with the pathogen. The foliar pathogens were applied by spraying as spore suspensions onto the leaves of the test plants.
(§4) After inoculation, the plants were placed in an appropriate environment to allow infection to proceed and then incubated until the disease was ready for assessment. The period between inoculation and assessment varied from four to fourteen days according to the disease and the environment.
(§5) Disease control was recorded using the following grading system : • 4 = no disease • 3 = trace to 5% of disease on untreated plants • 2 = 6-25% of disease on untreated plants • 1 = 26-59% of disease on untreated plants • 0 = 60-100% of disease on untreated plants

PUCCINIA RECONDITA = test: Foliar fungal disease test on plants (Example 29), Puccinia recondita on wheat; conditions: 100 ppm a.i. foliar spray plus root drench approx. 40 ppm ai./dry soil, mostly protectant, applied 1-2 days before inoculation
Experimental: as §1, §2, §3, §4, §5

[…] [2] = Foliar fungal disease test on plants (Example 29), […] on vines; conditions: 100 ppm a.i. foliar spray plus root drench approx. 40 ppm ai./dry soil, mostly protectant, applied 1-2 days before inoculation
Experimental: as §1, §2, §3, §4, §5

CERCOSPORA ARACHIDICOLA = test: Foliar fungal disease test on plants (Example 29), Cercospora arachidicola on peanuts; conditions: 100 ppm a.i. foliar spray plus root drench approx. 40 ppm ai./dry soil, mostly protectant, applied 1-2 days before inoculation
Experimental: as §1, §2, §3, §4, §5

[…] [3] = Root drench test against Plasmopara viticola on vines (Example 30); conditions: vines (variety ohanez), test concentration 30 ppm (marked *), inoculated after 2 days, assessed six days later
[4] = tested on: Phytophthora infestans lycopersicii; conditions: tomato plants (variety Outdoor Girl); 100 ppm ai.; inoculated after 1 day; 24 hours humidity cabinet, assessed after a further 2 days

Structure (SMILES)	Disease control […] (VINES) ([…] [1])	Disease control P[…] (RICE) (P[…])	Disease control VENTURIA INAEQUALIS (APPLES) (VENTURIA INAEQUALIS)	Disease control PUCCINIA RECONDITA (WHEAT) (PUCCINIA RECONDITA)	Disease control […] (VINES) ([…] [2])	Disease control CERCOSPORA ARACHIDICOLA (PEANUTS) (CERCOSPORA ARACHIDICOLA)	Disease control […] (VINES) ([…] [3])	Disease control Phytophthora infestans (tomatoes) [4]
C#CCNC(=O)C(C#N)=NOC [Compound 1, 2-cyano-2-methoxyimino-N-propargylacetamide]	4	3 (3 = trace to 5% of disease on untreated plants)	2 (2 = 6-25% of disease on untreated plants)	4	4	2 (2 = 6-25% of disease on untreated plants)	–	–
CON=C(C#N)C(=O)NCC(I)=CI [Compound 7, 2-cyano-2-methoxyimino-N-2,3-diiodo-allylacetamide]	–	2 (2 = 6-25% of disease on untreated plants)	0 (0 = 60-100% of disease on untreated plants)	0 (0 = 60-100% of disease on untreated plants)	4	0 (0 = 60-100% of disease on untreated plants)	2* (2 = 6-25% of disease on untreated plants)	–
C#CCN(CC#C)C(=O)C(C#N)=NOC [Compound 9, 2-cyano-2-methoxyimino-N,N-dipropargyl-acetamide]	–	2 (2 = 6-25% of disease on untreated plants)	0 (0 = 60-100% of disease on untreated plants)	2 (2 = 6-25% of disease on untreated plants)	4	0 (0 = 60-100% of disease on untreated plants)	3* (3 = trace to 5% of disease on untreated plants)	–
C#CCN(CC=C)C(=O)C(C#N)=NOC [Compound 10, 2-cyano-2-methoxyimino-N-(propargyl)-N-allylacetamide]	2 (2 = 6-25% of disease on untreated plants)	0 (0 = 60-100% of disease on untreated plants)	0 (0 = 60-100% of disease on untreated plants)	0 (0 = 60-100% of disease on untreated plants)	3 (3 = trace to 5% of disease on untreated plants)	2 (2 = 6-25% of disease on untreated plants)	–	–
CON=C(C#N)C(=O)NCC#N [Compound 20, 2-cyano-2-methoxyimino-N-(cyanomethyl)-acetamide]	4	1 (1 = 26-59% of disease on untreated plants)	3 (3 = trace to 5% of disease on untreated plants)	3 (3 = trace to 5% of disease on untreated plants)	4	2 (2 = 6-25% of disease on untreated plants)	–	2 (2 = 6-25% of disease on untreated plants)
CCON=C(C#N)C(=O)NCC#N [Compound 22, 2-cyano-2-ethoxyimino-N-(cyanomethyl)-acetamide]	4	3 (3 = trace to 5% of disease on untreated plants)	4	3 (3 = trace to 5% of disease on untreated plants)	4	3 (3 = trace to 5% of disease on untreated plants)	–	–
CON=C(C#N)C(=O)NCC(=O)OC [Compound 24, methoxycarbonylmethyl-(2-cyano-2-methoxyimino)-acetamide]	0 (0 = 60-100% of disease on untreated plants)	0 (0 = 60-100% of disease on untreated plants)	0 (0 = 60-100% of disease on untreated plants)	1 (1 = 26-59% of disease on untreated plants)	4	2 (2 = 6-25% of disease on untreated plants)	–	–
CON=C(C#N)C(=O)Nc1nccs1 [Compound 25, 2-cyano-2-methoxyimino-N-2-thiazolylacetamide]	0 (0 = 60-100% of disease on untreated plants)	0 (0 = 60-100% of disease on untreated plants)	2 (2 = 6-25% of disease on untreated plants)	3 (3 = trace to 5% of disease on untreated plants)	4	0 (0 = 60-100% of disease on untreated plants)	–	2 (2 = 6-25% of disease on untreated plants)
N#CCNC(=O)C(C#N)=NO [Compound 31, 2-cyano-2-oximino-N-(cyanomethyl)-acetamide]	–	2 (2 = 6-25% of disease on untreated plants)	0 (0 = 60-100% of disease on untreated plants)	0 (0 = 60-100% of disease on untreated plants)	0 (0 = 60-100% of disease on untreated plants)	0 (0 = 60-100% of disease on untreated plants)	–	–
CON=C(C#N)C(=O)NC(C)C#N (stereo not drawn) [Compound 34, 2-cyano-2-methoxyimino-N-(α-cyanoethyl)-acetamide]	4	0 (0 = 60-100% of disease on untreated plants)	0 (0 = 60-100% of disease on untreated plants)	4	4	0 (0 = 60-100% of disease on untreated plants)	–	3 (3 = trace to 5% of disease on untreated plants)
CON=C(C#N)C(=O)NCC(N)=S [Compound 54, 2-cyano-2-methoxyimino-N-(thio-carbamoylmethyl)-acetamide]	4	0 (0 = 60-100% of disease on untreated plants)	0 (0 = 60-100% of disease on untreated plants)	3 (3 = trace to 5% of disease on untreated plants)	4	3 (3 = trace to 5% of disease on untreated plants)	–	3 (3 = trace to 5% of disease on untreated plants)
CON=C(C#N)C(=O)NC(C#N)c1ccco1 (stereo not drawn) [Compound 63, 2-cyano-2-methoxyimino-N-[(2-furyl)-α-cyano-methyl]-acetamide]	4	0 (0 = 60-100% of disease on untreated plants)	0 (0 = 60-100% of disease on untreated plants)	2 (2 = 6-25% of disease on untreated plants)	4	0 (0 = 60-100% of disease on untreated plants)	–	–
